Source: PubChem BioAssay AID2060895 (Molecular Pharmacology Branch, DTP, NCI, 2025)

Tested on: PDC 899932-113-R3-J6 complex spheroid viability
Assay: Anticancer human tumor 899932-113-R3-J6-PDC patient-derived melanoma cell line growth inhibition [RAS]
Details: for IC50: curve of first compound; for viability, T/C: stronger effect = lower value
Method in brief: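 Tumour cells grown as complex spheroids with HUVEC endothelial cells and mesenchymal stem cells, treated with RAS pathway inhibitor combinations. Each agent spans half-log steps from near clinical Cmax, or 10 microM where Cmax is unknown.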

[1] = second compound 0.000949 µM, first compound 0.0316 µM
[2] = second compound 0.000949 µM, first compound 0.1 µM
[3] = second compound 0.000949 µM, first compound 0.316 µM
[4] = second compound 0.000949 µM, first compound 1 µM
[5] = second compound 0.000949 µM, first compound 3.16 µM
[6] = second compound 0.000949 µM, first compound 10 µM
[7] = second compound 0.003 µM, first compound 0.0316 µM
[8] = second compound 0.003 µM, first compound 0.1 µM
[9] = second compound 0.003 µM, first compound 0.316 µM
[10] = second compound 0.003 µM, first compound 1 µM
[11] = second compound 0.003 µM, first compound 3.16 µM
[12] = second compound 0.003 µM, first compound 10 µM
[13] = second compound 0.00949 µM, first compound 0.0316 µM
[14] = second compound 0.00949 µM, first compound 0.1 µM
[15] = second compound 0.00949 µM, first compound 0.316 µM
[16] = second compound 0.00949 µM, first compound 1 µM
[17] = second compound 0.00949 µM, first compound 3.16 µM
[18] = second compound 0.00949 µM, first compound 10 µM
[19] = second compound 0.03 µM, first compound 0.0316 µM
[20] = second compound 0.03 µM, first compound 0.1 µM
[21] = second compound 0.03 µM, first compound 0.316 µM
[22] = second compound 0.03 µM, first compound 1 µM
[23] = second compound 0.03 µM, first compound 3.16 µM
[24] = second compound 0.03 µM, first compound 10 µM
[25] = second compound 0.0949 µM, first compound 0.0316 µM
[26] = second compound 0.0949 µM, first compound 0.1 µM
[27] = second compound 0.0949 µM, first compound 0.316 µM
[28] = second compound 0.0949 µM, first compound 1 µM
[29] = second compound 0.0949 µM, first compound 3.16 µM
[30] = second compound 0.0949 µM, first compound 10 µM
[31] = second compound 0.3 µM, first compound 0.0316 µM
[32] = second compound 0.3 µM, first compound 0.1 µM
[33] = second compound 0.3 µM, first compound 0.316 µM
[34] = second compound 0.3 µM, first compound 1 µM
[35] = second compound 0.3 µM, first compound 3.16 µM
[36] = second compound 0.3 µM, first compound 10 µM
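Throughout, for viability, T/C: spheroids exposed to agents for seven days before readout; 100% = DMSO vehicle control wells.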

SMILES: CCc1c2c(nc3ccc(O)cc13)-c1cc3c(c(=O)n1C2)COC(=O)[C@]3(O)CC + C=CC(=O)N1CCN(c2nc(OCC3CCCN3C)nc3c(F)c(-c4nc(N)cc(C)c4C(F)(F)F)c(Cl)cc23)C(C)C1
- IC50 (second compound 0.00316 µM): 19.6 nM
- IC50 (second compound 0.01 µM): 24.3 nM
- IC50 (second compound 0.0316 µM): 33.1 nM
- IC50 (second compound 0.1 µM): 30.3 nM
- IC50 (second compound 0.316 µM): 29.4 nM
- IC50 (second compound 1 µM): 31.8 nM
- viability, T/C (second compound 0.00316 µM, first compound 0.000949 µM): 89.8%
- viability, T/C (second compound 0.00316 µM, first compound 0.003 µM): 65.9%
- viability, T/C (second compound 0.00316 µM, first compound 0.00949 µM): 57.6%
- viability, T/C (second compound 0.00316 µM, first compound 0.03 µM): 48.6%
- viability, T/C (second compound 0.00316 µM, first compound 0.0949 µM): 39.2%
- viability, T/C (second compound 0.00316 µM, first compound 0.3 µM): 36%
- viability, T/C (second compound 0.01 µM, first compound 0.000949 µM): 92.8%
- viability, T/C (second compound 0.01 µM, first compound 0.003 µM): 67.4%
- viability, T/C (second compound 0.01 µM, first compound 0.00949 µM): 59.2%
- viability, T/C (second compound 0.01 µM, first compound 0.03 µM): 50.2%
- viability, T/C (second compound 0.01 µM, first compound 0.0949 µM): 43%
- viability, T/C (second compound 0.01 µM, first compound 0.3 µM): 36.4%
- viability, T/C (second compound 0.0316 µM, first compound 0.000949 µM): 93.5%
- viability, T/C (second compound 0.0316 µM, first compound 0.003 µM): 78%
- viability, T/C (second compound 0.0316 µM, first compound 0.00949 µM): 59.9%
- viability, T/C (second compound 0.0316 µM, first compound 0.03 µM): 51%
- viability, T/C (second compound 0.0316 µM, first compound 0.0949 µM): 43.9%
- viability, T/C (second compound 0.0316 µM, first compound 0.3 µM): 30.3%
- viability, T/C (second compound 0.1 µM, first compound 0.000949 µM): 102%
- viability, T/C (second compound 0.1 µM, first compound 0.003 µM): 69.5%
- viability, T/C (second compound 0.1 µM, first compound 0.00949 µM): 61.3%
- viability, T/C (second compound 0.1 µM, first compound 0.03 µM): 55.7%
- viability, T/C (second compound 0.1 µM, first compound 0.0949 µM): 43.2%
- viability, T/C (second compound 0.1 µM, first compound 0.3 µM): 38.4%
- viability, T/C (second compound 0.316 µM, first compound 0.000949 µM): 95.6%
- viability, T/C (second compound 0.316 µM, first compound 0.003 µM): 71.7%
- viability, T/C (second compound 0.316 µM, first compound 0.00949 µM): 58.6%
- viability, T/C (second compound 0.316 µM, first compound 0.03 µM): 54.1%
- viability, T/C (second compound 0.316 µM, first compound 0.0949 µM): 43%
- viability, T/C (second compound 0.316 µM, first compound 0.3 µM): 34.4%
- viability, T/C (second compound 1 µM, first compound 0.000949 µM): 96.5%
- viability, T/C (second compound 1 µM, first compound 0.003 µM): 75%
- viability, T/C (second compound 1 µM, first compound 0.00949 µM): 59.9%
- viability, T/C (second compound 1 µM, first compound 0.03 µM): 51.7%
- viability, T/C (second compound 1 µM, first compound 0.0949 µM): 44.6%
- viability, T/C (second compound 1 µM, first compound 0.3 µM): 34.3%

SMILES: CC1(O)CCCC1n1c(=O)c(C(F)F)cc2cnc(NC3CCN(S(C)(=O)=O)CC3)nc21 (stereo unspecified) + CCn1c(-c2cccnc2C(C)OC)c2c3cc(ccc31)N1CCOC(CC(NC(=O)C(C(C)C)N(C)C(=O)C3(F)CCN(C(=O)C#CC(C)(C)N(C)C)CC3)C(=O)N3CCCC(N3)C(=O)OCC(C)(C)C2)C1
- IC50 (second compound 0.000949 µM): 3730 nM
- IC50 (second compound 0.003 µM): 3710 nM
- IC50 (second compound 0.00949 µM): 2840 nM
- IC50 (second compound 0.03 µM): 3470 nM
- IC50 (second compound 0.0949 µM): 2710 nM
- IC50 (second compound 0.3 µM): 3410 nM
- viability, T/C [1]: 98.1%
- viability, T/C [2]: 86.7%
- viability, T/C [3]: 72.3%
- viability, T/C [4]: 68.8%
- viability, T/C [5]: 56.8%
- viability, T/C [6]: 33.6%
- viability, T/C [7]: 99.8%
- viability, T/C [8]: 83%
- viability, T/C [9]: 71.6%
- viability, T/C [10]: 69.7%
- viability, T/C [11]: 59%
- viability, T/C [12]: 32.3%
- viability, T/C [13]: 107%
- viability, T/C [14]: 84.5%
- viability, T/C [15]: 69.7%
- viability, T/C [16]: 63.4%
- viability, T/C [17]: 55.9%
- viability, T/C [18]: 32.9%
- viability, T/C [19]: 110%
- viability, T/C [20]: 79.9%
- viability, T/C [21]: 69.6%
- viability, T/C [22]: 70.1%
- viability, T/C [23]: 59.7%
- viability, T/C [24]: 32.3%
- viability, T/C [25]: 94%
- viability, T/C [26]: 80.2%
- viability, T/C [27]: 66.3%
- viability, T/C [28]: 64.8%
- viability, T/C [29]: 55.6%
- viability, T/C [30]: 27%
- viability, T/C [31]: 88.5%
- viability, T/C [32]: 77.8%
- viability, T/C [33]: 69.3%
- viability, T/C [34]: 63.7%
- viability, T/C [35]: 59.6%
- viability, T/C [36]: 23.1%

SMILES: CC(Nc1ccc2c(c1)OCCn1cc(N3C(=O)OCC3C(F)F)nc1-2)C(N)=O (stereo unspecified) + CCn1c(-c2cccnc2C(C)OC)c2c3cc(ccc31)N1CCOC(CC(NC(=O)C(C(C)C)N(C)C(=O)C3(F)CCN(C(=O)C#CC(C)(C)N(C)C)CC3)C(=O)N3CCCC(N3)C(=O)OCC(C)(C)C2)C1
- IC50 (second compound 0.000949 µM): 1620 nM
- IC50 (second compound 0.003 µM): 1870 nM
- IC50 (second compound 0.00949 µM): 1380 nM
- IC50 (second compound 0.03 µM): 1370 nM
- IC50 (second compound 0.0949 µM): 650 nM
- IC50 (second compound 0.3 µM): 153 nM
- viability, T/C [1]: 94.8%
- viability, T/C [2]: 78.5%
- viability, T/C [3]: 64.5%
- viability, T/C [4]: 56.1%
- viability, T/C [5]: 43.4%
- viability, T/C [6]: 36.1%
- viability, T/C [7]: 90.1%
- viability, T/C [8]: 80.9%
- viability, T/C [9]: 67%
- viability, T/C [10]: 55.6%
- viability, T/C [11]: 46%
- viability, T/C [12]: 34.1%
- viability, T/C [13]: 94.7%
- viability, T/C [14]: 80.5%
- viability, T/C [15]: 66.4%
- viability, T/C [16]: 51.2%
- viability, T/C [17]: 44.6%
- viability, T/C [18]: 36%
- viability, T/C [19]: 86.5%
- viability, T/C [20]: 75.8%
- viability, T/C [21]: 59.8%
- viability, T/C [22]: 57.2%
- viability, T/C [23]: 40.5%
- viability, T/C [24]: 34%
- viability, T/C [25]: 79.5%
- viability, T/C [26]: 64.7%
- viability, T/C [27]: 57%
- viability, T/C [28]: 46%
- viability, T/C [29]: 39.2%
- viability, T/C [30]: 31.8%
- viability, T/C [31]: 69.5%
- viability, T/C [32]: 52%
- viability, T/C [33]: 45%
- viability, T/C [34]: 36.9%
- viability, T/C [35]: 34.2%
- viability, T/C [36]: 29.4%
